“Also recorded” adds a separate entry of the source.
Assays:
[1] = stability in water solution; assay type: physicochemical; conditions: decomposition especially at a low pH
solubility in water = assay type: physicochemical
[2] = administered intravenously to a human patient; average; cited from earlier work

Structure (SMILES) | stability in water solutions [1] | solubility in water (solubility in water) | half-life of elimination [2]
CC(C)(C)OC(=O)N1CC2CC(CN(C[C@H](O)COc3ccc(C#N)cc3)C2)C1 [Compound A, 3,7-diazabicyclo[3.3.1]-nonane-3-carboxylic acid, 7-[(2S)-3-(4-cyanophenoxy)-2-hydroxypropyl]-1,1-dimethylethyl ester] | unstable in water solutions; also recorded: decomposition in water solution | poorly soluble in water; also recorded: low water solubility | –
CCCCCCCN(CC)CCCC(O)c1ccc(NS(C)(=O)=O)cc1 (stereo not drawn) [ibutilide] | – | – | around 6 hours
